≈ marks a conversion by molar mass, not a printed value.
Columns and labels:
[1] = test system: Bacillus subtilis ATCC6633; experiment: Minimum Inhibitory Concentration (M.I.C.), serial agar dilution; assay type: cell-based; conditions: Mueller Hinton agar, inoculum 10^6 cells/ml, 37° C., 20 hours
Experimental: (§1) Minimum Inhibitory Concentration (M.I.C.)
(§2) M.I.C. test was conducted by a usual serial agar dilution method, using Mueller Hinton agar (Inoculum: 10^6 cells/ml) which was incubated at 37° C. for 20 hours. M.I.C. value is expressed as the minimum concentration of the Nocardicin E or F (mcg/ml) which inhibits growth of the microorganism.

[2] = test system: Escherichia coli NIHJ JC-2; experiment: as above; assay type: cell-based; conditions: NIHJJC2, Mueller Hinton agar, inoculum 10^6 cells/ml, 37° C., 20 hours
Experimental: as §1, §2

[3] = test system: Pseudomonas aeruginosa NCTC10490; experiment: as above; assay type: cell-based; conditions: Mueller Hinton agar, inoculum 10^6 cells/ml, 37° C., 20 hours
Experimental: as §1, §2

[4] = test system: Staphylococcus aureus 209P; experiment: as above; assay type: cell-based; conditions: Mueller Hinton agar, inoculum 10^6 cells/ml, 37° C., 20 hours
Experimental: as §1, §2

Solubility = assay type: physicochemical
[5] = aqueous alkaline solution (Nocardicin E: e.g. aqueous ammonia, aqueous sodium hydroxide solution)

| SMILES | MIC [1] [µg/mL] | MIC [2] [µg/mL] | MIC [3] [µg/mL] | MIC [4] [µg/mL] | Solubility (Solubility; C2 H5 OH) | Solubility (Solubility; CH3 COCH3) | Solubility (Solubility; CH3 COOC2 H5) | Solubility (Solubility; CH3 OH) | Solubility (Solubility; CHCl3) | Solubility (Solubility; [5]) | Solubility (Solubility; dimethylsulfoxide) | Solubility (Solubility; pyridine) |
| --- | --- | --- | --- | --- | --- | --- | --- | --- | --- | --- | --- | --- |
| O=C(NC1CN(C(C(=O)O)c2ccc(O)cc2)C1=O)/C(=N\O)c1ccc(O)cc1 (stereo not drawn) [Nocardicin E] | > 400 | > 400 | 12.5 (≈ 31.3 µM) | > 400 | Sparingly soluble | Insoluble | Insoluble | Sparingly soluble | Insoluble | Highly soluble | Highly soluble | Highly soluble |
| O=C(NC1CN(C(C(=O)O)c2ccc(O)cc2)C1=O)/C(=N/O)c1ccc(O)cc1 (stereo not drawn) [Nocardicin F] | > 400 | > 400 | 100 (≈ 250 µM) | > 400 | Sparing soluble | Insoluble | Insoluble | Sparing soluble | Insoluble | Highly soluble | Highly soluble | Highly soluble |
